The values that follow come from ChEMBL document CHEMBL1201862, “PubChem BioAssay data set” (2004).

Active and inactive are the calls of the source.

What all share (format): functional
Assay [1] in a line: Counterscreen for antagonists of the orexin 1 receptor (OX1R; HCRTR1): Fluorescence-based cell-based high throughput dose response assay to identify antagonists of the parental CHO cell line. [Related pubchem assays (depositor defined):AID434989, AID435008, AID463079, AID485270, AID492963, AID492964, AID492965, AID493232, AID504699, AID504701]. A general note: Counterscreens check selectivity or assay interference.

In assay [2] the target is T1, Orexin receptor type 2 (Homo sapiens, UniProt O43614).
T1 sequence (O43614 whole entry): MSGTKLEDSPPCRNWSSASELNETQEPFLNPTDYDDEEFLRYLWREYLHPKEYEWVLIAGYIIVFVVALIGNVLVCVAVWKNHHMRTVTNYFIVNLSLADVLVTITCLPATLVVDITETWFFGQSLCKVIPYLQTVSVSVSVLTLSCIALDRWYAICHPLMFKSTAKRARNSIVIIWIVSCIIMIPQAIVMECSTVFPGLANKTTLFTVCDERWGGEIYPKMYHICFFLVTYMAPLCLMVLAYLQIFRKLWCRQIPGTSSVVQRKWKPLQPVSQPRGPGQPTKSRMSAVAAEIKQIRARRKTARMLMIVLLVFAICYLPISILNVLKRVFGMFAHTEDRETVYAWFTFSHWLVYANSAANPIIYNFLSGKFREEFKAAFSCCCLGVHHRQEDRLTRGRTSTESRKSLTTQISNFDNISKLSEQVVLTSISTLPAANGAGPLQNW
The assay can be described thus: Counterscreen assay for antagonists of the orexin 1 receptor (OX1R; HCRTR1): Homogeneous Time Resolved Fluorescence (HTRF)-based cell-based dose response assay for antagonists of the orexin 2 receptor (OX2R; HCRTR2), run by assay provider.

In assay [3] the target is T1, Orexin receptor type 2. As to the kind of experiment: Counterscreen assay for antagonists of the orexin 1 receptor (OX1R; HCRTR1): Fluorescence-based cell-based dose response assay for antagonists of the orexin 2 receptor (OX2R; HCRTR2), run by assay provider.
The target in assay [4] is T2, Orexin/Hypocretin receptor type 1 (Homo sapiens, UniProt O43613).
T2 sequence (O43613 whole entry): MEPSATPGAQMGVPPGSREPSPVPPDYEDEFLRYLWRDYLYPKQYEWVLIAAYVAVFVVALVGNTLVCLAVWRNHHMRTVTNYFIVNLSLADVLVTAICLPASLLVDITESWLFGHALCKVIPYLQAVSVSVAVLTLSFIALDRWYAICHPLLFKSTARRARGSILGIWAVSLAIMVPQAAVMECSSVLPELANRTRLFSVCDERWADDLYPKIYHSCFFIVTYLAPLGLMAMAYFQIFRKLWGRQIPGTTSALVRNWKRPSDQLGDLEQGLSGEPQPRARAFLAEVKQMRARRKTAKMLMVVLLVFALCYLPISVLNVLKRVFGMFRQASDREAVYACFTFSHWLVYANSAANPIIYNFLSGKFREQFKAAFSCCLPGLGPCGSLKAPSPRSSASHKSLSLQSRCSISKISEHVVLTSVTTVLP
As to the kind of experiment: Homogeneous Time Resolved Fluorescence (HTRF)-based cell-based high throughput dose response assay for antagonists of the orexin 1 receptor (OX1R; HCRTR1). [Related pubchem assays (depositor defined):AID434989, AID435008, AID463079, AID485270, AID492963, AID492964, AID492965, AID493232, AID504717, AID504718].

For assay [5], the target named is T2, Orexin/Hypocretin receptor type 1. As to the kind of experiment: Fluorescence-based cell-based high throughput dose response assay for antagonists of the orexin 1 receptor (OX1R; HCRTR1). [Related pubchem assays (depositor defined):AID434989, AID435008, AID463079, AID485270, AID492963, AID492964, AID492965, AID493232, AID504717, AID504718].
The test system of assay [6] is CHO-K1. As to the kind of experiment: Counterscreen for antagonists of the orexin 1 receptor (OX1R; HCRTR1): Homogeneous time resolved fluorescence (HTRF)-based cell-based dose response assay to identify antagonists of the parental CHO-K1 cell line. [Related pubchem assays (depositor defined):AID434989, AID435008, AID463079, AID485270, AID492963, AID492964, AID492965, AID493232, AID504699, AID504701]. The following applies: Cricetulus griseus.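 Further: potency for inhibition of ATP-stimulated IP1 production as antagonists.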

The target of assay [7] is T3, Sentrin-specific protease 7 (Homo sapiens, UniProt Q9BQF6).
T3 sequence (Q9BQF6 whole entry): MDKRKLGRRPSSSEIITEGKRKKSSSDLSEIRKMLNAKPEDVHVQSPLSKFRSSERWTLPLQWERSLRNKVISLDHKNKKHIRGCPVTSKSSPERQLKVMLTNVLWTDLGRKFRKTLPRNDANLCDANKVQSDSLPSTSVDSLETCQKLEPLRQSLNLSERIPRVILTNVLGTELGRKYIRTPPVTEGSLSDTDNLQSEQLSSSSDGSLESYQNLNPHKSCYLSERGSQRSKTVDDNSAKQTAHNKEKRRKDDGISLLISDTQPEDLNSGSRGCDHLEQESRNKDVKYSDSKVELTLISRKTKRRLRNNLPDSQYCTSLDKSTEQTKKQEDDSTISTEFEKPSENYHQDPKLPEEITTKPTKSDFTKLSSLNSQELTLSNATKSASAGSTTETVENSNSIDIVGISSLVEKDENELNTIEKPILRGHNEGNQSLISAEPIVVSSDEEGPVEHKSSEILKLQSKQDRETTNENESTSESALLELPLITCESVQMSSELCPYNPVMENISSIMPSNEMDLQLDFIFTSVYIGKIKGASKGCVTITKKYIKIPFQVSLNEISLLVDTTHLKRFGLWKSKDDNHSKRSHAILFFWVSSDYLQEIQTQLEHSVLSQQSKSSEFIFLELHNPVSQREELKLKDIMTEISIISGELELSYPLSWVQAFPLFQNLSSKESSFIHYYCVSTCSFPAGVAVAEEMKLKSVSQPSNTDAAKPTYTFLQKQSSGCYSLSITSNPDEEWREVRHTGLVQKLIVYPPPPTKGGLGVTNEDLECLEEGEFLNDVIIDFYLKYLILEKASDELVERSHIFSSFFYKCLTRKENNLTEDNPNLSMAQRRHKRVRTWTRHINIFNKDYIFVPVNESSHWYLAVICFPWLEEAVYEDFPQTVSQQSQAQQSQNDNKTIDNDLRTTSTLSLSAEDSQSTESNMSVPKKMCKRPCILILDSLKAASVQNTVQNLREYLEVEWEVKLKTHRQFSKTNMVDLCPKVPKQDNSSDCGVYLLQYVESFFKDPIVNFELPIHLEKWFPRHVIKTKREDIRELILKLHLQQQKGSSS
As to the kind of experiment: inhibition of human SENP7 cleavage activity – biochemical, luminescence, set 2, SAR follow-up (AID 588600).

Assay [8] concerns the target T4, Sentrin-specific protease 6 (Homo sapiens, UniProt Q9GZR1).
T4 sequence (Q9GZR1 whole entry): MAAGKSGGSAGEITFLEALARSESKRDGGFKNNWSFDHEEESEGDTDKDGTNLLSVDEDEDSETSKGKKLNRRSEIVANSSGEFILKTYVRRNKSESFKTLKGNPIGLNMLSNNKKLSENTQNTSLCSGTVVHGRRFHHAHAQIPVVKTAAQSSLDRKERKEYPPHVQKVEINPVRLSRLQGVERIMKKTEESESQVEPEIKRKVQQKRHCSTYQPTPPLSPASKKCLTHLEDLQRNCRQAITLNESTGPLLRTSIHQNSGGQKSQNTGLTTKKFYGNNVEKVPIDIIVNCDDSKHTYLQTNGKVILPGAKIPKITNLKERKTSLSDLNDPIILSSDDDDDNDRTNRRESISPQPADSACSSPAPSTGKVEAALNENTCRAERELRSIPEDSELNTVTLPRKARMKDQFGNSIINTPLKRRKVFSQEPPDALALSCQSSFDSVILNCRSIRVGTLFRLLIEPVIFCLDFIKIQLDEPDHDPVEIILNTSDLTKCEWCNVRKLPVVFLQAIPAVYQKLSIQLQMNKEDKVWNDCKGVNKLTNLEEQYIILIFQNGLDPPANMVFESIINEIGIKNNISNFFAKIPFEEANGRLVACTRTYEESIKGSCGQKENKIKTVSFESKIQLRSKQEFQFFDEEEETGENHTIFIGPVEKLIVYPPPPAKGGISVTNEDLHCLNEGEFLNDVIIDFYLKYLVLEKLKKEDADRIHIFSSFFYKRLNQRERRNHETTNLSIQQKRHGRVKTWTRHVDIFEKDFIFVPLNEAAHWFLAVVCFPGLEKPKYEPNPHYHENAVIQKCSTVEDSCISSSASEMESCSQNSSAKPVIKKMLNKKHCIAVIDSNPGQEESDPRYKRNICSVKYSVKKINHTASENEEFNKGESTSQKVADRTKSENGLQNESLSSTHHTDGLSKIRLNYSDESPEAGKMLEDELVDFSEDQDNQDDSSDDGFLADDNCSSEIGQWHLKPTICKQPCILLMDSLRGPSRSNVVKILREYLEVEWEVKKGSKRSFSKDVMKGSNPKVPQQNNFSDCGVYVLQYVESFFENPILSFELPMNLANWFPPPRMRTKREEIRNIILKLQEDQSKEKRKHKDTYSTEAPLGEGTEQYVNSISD
As to the kind of experiment: inhibition of human SENP6 catalytic domain – biochemical, luminescence, set 2, SAR follow-up (AID 588598).

In assay [9] the target is T5, Caspase-3 (Homo sapiens, UniProt P42574).
T5 sequence (P42574 whole entry): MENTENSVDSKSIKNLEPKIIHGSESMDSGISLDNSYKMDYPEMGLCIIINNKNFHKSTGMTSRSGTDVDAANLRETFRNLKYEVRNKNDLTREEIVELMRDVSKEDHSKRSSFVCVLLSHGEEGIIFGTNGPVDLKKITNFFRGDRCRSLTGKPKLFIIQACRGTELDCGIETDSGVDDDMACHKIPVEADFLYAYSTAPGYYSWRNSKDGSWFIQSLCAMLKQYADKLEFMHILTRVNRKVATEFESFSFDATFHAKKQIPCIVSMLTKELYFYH
The assay can be described thus: inhibition of recombinant caspase-3 activity – biochemical, luminescence, set 2, selectivity assay for SENP protease inhibitor project, SAR follow-up (AID 588599).

In assay [10] the target is T6, Sentrin-specific protease 8 (Homo sapiens, UniProt Q96LD8).
T6 sequence (Q96LD8 whole entry): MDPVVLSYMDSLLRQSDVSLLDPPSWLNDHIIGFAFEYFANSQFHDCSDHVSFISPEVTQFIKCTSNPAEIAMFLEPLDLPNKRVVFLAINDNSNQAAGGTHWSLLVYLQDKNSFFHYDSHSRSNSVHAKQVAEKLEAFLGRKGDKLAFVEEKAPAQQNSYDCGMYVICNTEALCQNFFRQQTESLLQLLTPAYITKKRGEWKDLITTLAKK
As to the kind of experiment: inhibition of sentrin protease 8 – biochemical, luminescence, set 2, SAR follow-up (AID 588601).

What is called IC50 is the point on the concentration scale where inhibition reaches its midpoint. On to `CCSC1=C(C#N)C(c2ccccc2Cl)C(C(=O)c2cccs2)C(O)(C(F)(F)F)N1` (stereo unspecified), for which the IC50 in [1] was 33.9 µM (inactive); in assay [2] it was > 50 µM (inactive); in [3], 20 µM (inactive); in [4], 0.174 µM (active); in [5] it was 0.878 µM (active); in assay [6] it was > 66.2 µM (inactive).

For the molecule `CCOC(=O)C1=C(COC(=O)/C=C/c2cccc(OC)c2)NC(=O)NC1C` (stereo unspecified), the IC50 in assay [1] was > 49.8 µM (inactive); in [2] it was > 50 µM (inactive); in assay [3] it was > 88.8 µM (inactive); in assay [4] it was 8.33 µM (active); in assay [5], 15.3 µM (inactive); in [6], > 66.2 µM (inactive).

Consider `CN(C(=O)C(=O)c1c[nH]c2ccccc12)C1CCCCC1`, for which the IC50 in assay [7], in assay [8], in assay [9] and in [10] was > 99 µM (inactive) in each case.
